PMC11892739, “Site-specific molecular glues for the 14-3-3/Tau pS214 protein–protein interaction via reversible covalent imine tethering” (RSC Medicinal Chemistry, 2025)

Molecular target: T1, 14-3-3/Pin1 complex (Homo sapiens, UniProt P63104)
T1 construct: made in house; host or cells: NiCo21 (DE3) E. coli
Test: FA peptide screen, 14-3-3ζ titration to client peptide and compound: Pin1
Assay type: binding
Conditions: 250 μM compound
Description: Since the hub protein 14-3-3 binds to hundreds of phosphoprotein partners, selectivity of PPI stabilization is a major challenge. The interplay of chemical reactivity, and the topology and functionality of the composite binding pocket shaped by 14-3-3 and Tau potentially provide entries towards selective stabilization. […] Here, 14-3-3ζ was titrated to a constant concentration of client peptide (100 nM) and compound (250 μM) to determine the SF250μM values for the particular 14-3-3 PPI. A variety of 14-3-3 binding proteins was represented in this client panel whereby the size and hydrophobicity of the +1 amino acid were varied. […]
chromatography (HisTrap high performance cartridges, Cytiva). […]
0.1% (v/v) Tween20, 0.1% (w/v) BSA). […] Measurements were performed directly after plate preparation, using a Tecan SPARK plate reader at room temperature ( λex: 485±20 nm; λem: 535±25 nm; mirror: automatic; flashes: 30; settle time: 1 ms; gain: optimal; Z -position: calculated from well). […] All data were analyzed using GraphPad Prism (10.0.1) and fitted with a four -parameter logistic model (4PL) to determine binding affinities (dissociation constant, KD). […]
Fluorescence Anisotropy – peptide screen […]

T1 sequence (P63104 whole entry, other chains not shown): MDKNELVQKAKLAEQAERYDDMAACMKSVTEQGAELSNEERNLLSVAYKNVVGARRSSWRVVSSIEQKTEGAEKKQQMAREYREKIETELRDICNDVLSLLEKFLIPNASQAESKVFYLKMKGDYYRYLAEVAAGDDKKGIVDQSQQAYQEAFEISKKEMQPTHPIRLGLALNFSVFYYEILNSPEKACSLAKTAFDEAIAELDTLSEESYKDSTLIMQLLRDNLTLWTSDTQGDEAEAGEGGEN

## CCc1ccc(-c2nccn2-c2ccc(C=O)c(Br)c2)cc1 [Compound 18]
100 nM Pin1 peptide, 14-3-3ζ titrated
  SF250μM for 14-3-3/Pin1 PPI stabilization: 3.9
100 nM peptide, +1 Trp
  stabilization of 14-3-3/Pin1 peptide (in words): no significant stabilization
